In patent publication US7105534B2, “Imidazo[1,2-α]pyridine ether compounds as ion channel modulators” (Cardiome Pharma Corp., priority 2000, dated 2006):
Where a name gives a salt, the structure may show the parent alone. One block for each molecule: values may come before it.

Key:
Sprague Dawley rats = assay: Cardiovascular and behavioral effects: ECG changes during i.v. infusion in conscious rats; assay type: in vivo, rat
Experimental: Preparative surgery is performed in Sprague Dawley rats weighing 200–300 gm and anaesthetized with 65 mg/kg (i.p.) pentobarbital. The femoral artery and vein are cannulated using polyethylene (PE)-10 tubing. Prior to surgery, this PE-10 tubing had been annealed to a wider gauge (PE-50) tubing for externalization. The cannulated PE-10/PE-50 tubing is passed through a trocar and exteriorised together with three (lead II) limb ECG leads (see below). The trocar is threaded under the skin of the back and out through a small incision at the mid-scapular region. A ground ECG electrode is inserted subcutaneously using a 20 gauge needle with the lead wire threaded through it. To place the other ECG electrodes, a small incision is made in the anterior chest region over the heart and ECG leads are inserted into the subcutaneous muscle layer in the region of the heart using a 20 guage needle. Other ECG leads are inserted into the subcutaneous muscle layer in the region near the base of the neck and shoulder (right side). The animal is returned to a clean recovery-cage with free access to food and water. The treatment and observational period for each animal commenced after a 24-hour recovery period.
A 15 min observational period is recorded followed by the intravenous infusion regime of the test compound at an initial dose of 2.0 μmol/kg/min (at 1 ml/hr). This rate is doubled every 5 minutes until one of the following effects is observed:
Blood pressure (BP), heart rate (HR) and ECG variables are continuously recorded while behavioral responses are also monitored and the total accumulative drug dose and drug infusion rate at which the response (such as convulsion, piloerection, ataxia, restlessness, compulsive chewing, lip-smacking, wet dog shake etc.) occurred are recorded.
Electrocardiograph (ECG) parameters: PR, QRS, QT1 (peak of T-wave), QT2 (midpoint of T-wave deflection) and hemodynamic parameters: BP and HR are analyzed using the automated analysis function in LabView (National Instruments) with a customized autoanalysis software (Nortran Pharmaceuticals). The infused dose producing 25% from control (D25) for all recorded ECG variables is determined.
Table 2 describes the results of the tests as D25 (micromol/kg) which are the doses required to produce a 25% increase in the ECG parameter measured (ne=not estimated). The increases in P-R interval and QRS interval indicate cardiac sodium channel blockade while the increase in Q-T interval indicates cardiac potassium channel blockade.

Kv4.2 = target: T1, Kv4.2 (Homo sapiens, UniProt Q9NZV8); assay: Patch-clamp inhibition of cloned ion channel current in transfected HEK cells: Kv4.2; assay type: cell-based; conditions: integrated current, -80 mV to +60 mV
T1 construct: expressed in transfected cells; host or cells: HEK cells, transient transfection, vector pCDNA3
T1 sequence (Q9NZV8 1-630): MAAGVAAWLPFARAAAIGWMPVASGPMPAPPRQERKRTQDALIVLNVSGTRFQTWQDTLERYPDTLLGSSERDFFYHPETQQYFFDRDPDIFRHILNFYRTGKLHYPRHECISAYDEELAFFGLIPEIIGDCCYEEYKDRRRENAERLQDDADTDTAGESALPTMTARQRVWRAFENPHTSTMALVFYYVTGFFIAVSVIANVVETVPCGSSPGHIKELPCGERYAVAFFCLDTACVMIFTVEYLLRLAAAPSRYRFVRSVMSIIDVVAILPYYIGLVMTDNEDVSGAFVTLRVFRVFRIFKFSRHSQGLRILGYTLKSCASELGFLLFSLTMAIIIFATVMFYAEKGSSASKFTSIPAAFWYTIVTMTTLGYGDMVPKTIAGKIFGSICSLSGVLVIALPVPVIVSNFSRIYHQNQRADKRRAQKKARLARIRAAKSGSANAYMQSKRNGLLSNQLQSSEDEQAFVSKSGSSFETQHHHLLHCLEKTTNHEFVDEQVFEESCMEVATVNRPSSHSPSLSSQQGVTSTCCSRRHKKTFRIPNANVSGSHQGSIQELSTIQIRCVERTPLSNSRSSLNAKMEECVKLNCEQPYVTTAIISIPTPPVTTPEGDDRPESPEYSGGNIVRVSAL
Experimental: (§1) The relevant cloned ion channels (e.g. cardiac hH1, Kv1.4, Kv1.5, Kv4.2, Kv2.1, HERG etc.) are studied by transient transfection into HEK cells using the mammalian expression vector pCDNA3. Transfections for each channel type are carried out separately to allow individual study of the ion channel of interest. Cells expressing channel protein are detected by cotransfecting cells with the vector pHook-1 (Invitrogen, San Diego, Calif., USA). […] Equal concentrations of individual channel and pHook DNA are incubated with 10× concentration of lipofectAce in Modified Eagle's Medium (MEM, Canadian Life Technologies) and incubated with parent HEK cells plated on 25 mm culture dishes. After 3–4 hours the solution is replaced with a standard culture medium plus 20% fetal bovine serum and 1% antimycotic. Transfected cells are maintained at 37C in an air/5% CO2 incubator in 25 mm Petri dishes plated on glass coverslips for 24–48 hours to allow channel expression to occur. 20 min prior to experiments, cells are treated with beads coated with phOX. After 15 min, excess beads are […] off with cell culture medium and cells which had beads stuck to them are used for electrophysiological tests.
(§2) For whole-cell recording the control pipette filling solution contained (in mM): KCl, 130; EGTA, 5; MgCl2, 1; HEPES, 10; Na2ATP, 4; GTP, 0.1; and is adjusted to pH 7.2 with KOH. The control bath solution contained (in mM): NaCl, 135; KCI, 5; sodium acetate, 2.8; MgCl2, 1; HEPES, 10; CaCl2, 1; and is adjusted to pH 7.4 with NaOH. The test ion channel modulating compound is dissolved to 10 mM stock solutions in water and used at concentrations between 0.5 and 100 μM.
(§3) Coverslips containing cells are removed from the incubator before experiments and placed in a superfusion chamber (volume 250 μl) containing the control bath solution at 22C to 23C. All recordings are made via the variations of the patch-clamp technique, using an Axopatch 200A amplifier (Axon Instruments, CA). Patch electrodes are pulled from thin-walled borosilicate glass (World Precision Instruments; FL) on a horizontal micropipette puller, fire-polished, and filled with appropriate solutions. Electrodes had resistances of […] when filled with control filling solution. Analog capacity compensation is used in all whole cell measurements. In some experiments, leak subtraction is applied to data. Membrane potentials have not been corrected for any junctional potentials that arose between the pipette and bath solution. Data are filtered at 5 to 10 kHz before digitization and stored on a microcomputer for later analysis using the pClamp6 software (Axon Instruments, Foster City, Calif.). Due to the high level of expression of channel cDNA's in HEK cells, there is no need for signal averaging. The average cell capacitance is quite small, and the absence of ionic current at negative membrane potentials allowed faithful leak subtraction of data.
(§4) The concentration-response curves for changes in peak and steady-state current produced by the test compound are computer-fitted to the Hill equation: f=1−1/[1+([…])^n] [1]
(§5) where f is the fractional current (f=Idrug/Icontrol) at drug concentration [D]; IC50 is the concentration producing half-maximal inhibition and n is the Hill coefficient.
(§6) Compounds of the present invention may be evaluated by this method. […] Block is determined from the decrease in peak hH1 Na^+ current, or in steady-state Kv1.5 and integrated Kv4.2 current in the presence of drug. To record Na^+ current, cells are depolarized from the holding potential of −100 mV to a voltage of −30 mV for 10 ms to fully open and inactivate the channel. To record Kv1.5 and Kv4.2 current, cells are depolarized from the holding potential of −80 mV to a voltage of +60 mV for 200 ms to fully open the channel. Currents are recorded in the steady-state at a range of drug concentrations during stimulation every 4 s. […]

HERG = target: T2, HERG (Homo sapiens, UniProt Q12809); assay: Patch-clamp inhibition of cloned ion channel current in transfected HEK cells: HERG; assay type: cell-based; conditions: whole-cell patch clamp
T2 construct: expressed in transfected cells; host or cells: HEK cells, transient transfection, vector pCDNA3
T2 sequence (Q12809 whole entry): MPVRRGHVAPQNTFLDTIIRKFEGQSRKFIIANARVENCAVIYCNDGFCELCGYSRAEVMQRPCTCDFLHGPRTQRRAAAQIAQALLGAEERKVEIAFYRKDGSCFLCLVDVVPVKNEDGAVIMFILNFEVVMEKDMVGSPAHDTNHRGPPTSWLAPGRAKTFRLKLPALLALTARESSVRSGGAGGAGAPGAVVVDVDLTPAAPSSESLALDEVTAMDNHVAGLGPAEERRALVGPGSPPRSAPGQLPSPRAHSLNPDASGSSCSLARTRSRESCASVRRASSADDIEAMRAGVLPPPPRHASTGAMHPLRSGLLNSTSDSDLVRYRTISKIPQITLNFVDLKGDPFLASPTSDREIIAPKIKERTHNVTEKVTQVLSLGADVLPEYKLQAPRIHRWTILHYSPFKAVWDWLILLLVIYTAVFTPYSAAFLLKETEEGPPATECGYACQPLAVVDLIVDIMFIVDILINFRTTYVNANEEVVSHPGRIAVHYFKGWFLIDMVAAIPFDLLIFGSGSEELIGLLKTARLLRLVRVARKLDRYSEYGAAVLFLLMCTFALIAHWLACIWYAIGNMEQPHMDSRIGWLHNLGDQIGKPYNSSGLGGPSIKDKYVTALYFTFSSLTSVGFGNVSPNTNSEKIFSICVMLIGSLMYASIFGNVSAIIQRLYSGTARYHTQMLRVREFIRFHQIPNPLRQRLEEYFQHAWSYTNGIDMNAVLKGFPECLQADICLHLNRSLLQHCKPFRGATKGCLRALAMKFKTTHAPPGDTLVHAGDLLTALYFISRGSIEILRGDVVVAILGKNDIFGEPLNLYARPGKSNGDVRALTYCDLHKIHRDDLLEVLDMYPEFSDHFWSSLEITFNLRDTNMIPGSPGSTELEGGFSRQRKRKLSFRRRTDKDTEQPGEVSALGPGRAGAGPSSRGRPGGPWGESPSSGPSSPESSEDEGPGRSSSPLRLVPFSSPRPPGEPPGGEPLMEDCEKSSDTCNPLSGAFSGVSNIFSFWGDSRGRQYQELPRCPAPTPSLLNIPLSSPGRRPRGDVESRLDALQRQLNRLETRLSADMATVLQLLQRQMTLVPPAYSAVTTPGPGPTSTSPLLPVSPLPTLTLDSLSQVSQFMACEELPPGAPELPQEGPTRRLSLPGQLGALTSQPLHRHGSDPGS
Experimental: as §1, §2, §3, §4, §5, §6

hH1 Na+ current = target: T3, hH1 Na+ current (Homo sapiens, UniProt Q14524); assay: Patch-clamp inhibition of cloned ion channel current in transfected HEK cells: Na; assay type: cell-based; conditions: peak hH1 Na+ current, -100 mV to -30 mV
T3 construct: expressed in transfected cells; host or cells: HEK cells, transient transfection, vector pCDNA3
T3 sequence (Q14524 whole entry): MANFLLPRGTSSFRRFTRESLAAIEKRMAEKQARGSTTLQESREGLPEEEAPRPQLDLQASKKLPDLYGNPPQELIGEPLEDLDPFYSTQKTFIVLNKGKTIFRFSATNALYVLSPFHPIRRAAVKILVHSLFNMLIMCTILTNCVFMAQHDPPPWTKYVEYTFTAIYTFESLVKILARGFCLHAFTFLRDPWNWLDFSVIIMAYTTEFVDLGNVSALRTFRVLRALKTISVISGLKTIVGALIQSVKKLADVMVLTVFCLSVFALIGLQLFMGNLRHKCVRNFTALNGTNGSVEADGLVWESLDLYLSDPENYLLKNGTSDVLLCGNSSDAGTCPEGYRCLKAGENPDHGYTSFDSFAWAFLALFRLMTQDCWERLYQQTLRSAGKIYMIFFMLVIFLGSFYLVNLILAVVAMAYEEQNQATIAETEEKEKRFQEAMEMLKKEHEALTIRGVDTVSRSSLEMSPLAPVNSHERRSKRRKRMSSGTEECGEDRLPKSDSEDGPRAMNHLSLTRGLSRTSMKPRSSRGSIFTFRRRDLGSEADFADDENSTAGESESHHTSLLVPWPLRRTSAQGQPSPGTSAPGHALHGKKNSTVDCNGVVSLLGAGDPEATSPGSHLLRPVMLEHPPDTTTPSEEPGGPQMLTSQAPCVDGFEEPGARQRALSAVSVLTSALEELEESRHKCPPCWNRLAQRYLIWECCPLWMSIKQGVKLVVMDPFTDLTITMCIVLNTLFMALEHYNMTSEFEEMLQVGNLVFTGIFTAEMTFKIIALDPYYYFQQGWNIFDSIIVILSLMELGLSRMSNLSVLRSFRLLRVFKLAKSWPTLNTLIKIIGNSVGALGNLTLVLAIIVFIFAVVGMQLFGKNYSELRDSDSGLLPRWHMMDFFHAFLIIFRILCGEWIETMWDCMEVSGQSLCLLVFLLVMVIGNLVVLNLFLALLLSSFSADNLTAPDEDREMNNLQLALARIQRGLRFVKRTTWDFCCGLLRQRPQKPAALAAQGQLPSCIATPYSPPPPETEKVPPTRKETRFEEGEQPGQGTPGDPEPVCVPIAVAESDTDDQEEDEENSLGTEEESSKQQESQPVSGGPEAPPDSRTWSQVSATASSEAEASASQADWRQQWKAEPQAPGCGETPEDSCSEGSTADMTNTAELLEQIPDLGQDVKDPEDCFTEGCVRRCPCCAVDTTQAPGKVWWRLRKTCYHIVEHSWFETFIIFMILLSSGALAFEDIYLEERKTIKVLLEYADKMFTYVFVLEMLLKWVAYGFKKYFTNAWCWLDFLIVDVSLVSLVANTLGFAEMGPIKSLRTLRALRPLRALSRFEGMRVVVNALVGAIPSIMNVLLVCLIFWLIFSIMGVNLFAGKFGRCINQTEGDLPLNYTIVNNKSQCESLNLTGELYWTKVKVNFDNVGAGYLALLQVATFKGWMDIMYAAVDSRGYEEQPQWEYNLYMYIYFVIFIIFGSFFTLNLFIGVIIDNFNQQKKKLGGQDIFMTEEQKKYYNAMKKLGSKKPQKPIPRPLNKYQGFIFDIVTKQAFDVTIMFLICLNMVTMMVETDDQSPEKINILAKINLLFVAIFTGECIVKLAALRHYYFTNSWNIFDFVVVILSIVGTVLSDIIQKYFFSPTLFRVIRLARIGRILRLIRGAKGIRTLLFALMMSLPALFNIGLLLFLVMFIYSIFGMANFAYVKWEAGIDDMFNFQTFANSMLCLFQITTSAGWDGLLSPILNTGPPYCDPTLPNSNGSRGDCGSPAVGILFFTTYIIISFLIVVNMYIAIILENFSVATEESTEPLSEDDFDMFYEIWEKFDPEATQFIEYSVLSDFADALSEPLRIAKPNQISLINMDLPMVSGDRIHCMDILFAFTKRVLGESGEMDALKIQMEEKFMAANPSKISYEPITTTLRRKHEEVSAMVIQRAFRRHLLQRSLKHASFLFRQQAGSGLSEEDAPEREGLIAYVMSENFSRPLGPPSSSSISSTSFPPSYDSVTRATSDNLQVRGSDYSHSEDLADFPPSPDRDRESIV
Experimental: as §1, §2, §3, §4, §5, §6

Kv1.5 = target: T4, Kv1.5 (Homo sapiens, UniProt P22460); assay: Patch-clamp inhibition of cloned ion channel current in transfected HEK cells: Kv1.5; assay type: cell-based; conditions: steady-state current, -80 mV to +60 mV
T4 construct: expressed in transfected cells; host or cells: HEK cells, transient transfection, vector pCDNA3
T4 sequence (P22460 whole entry): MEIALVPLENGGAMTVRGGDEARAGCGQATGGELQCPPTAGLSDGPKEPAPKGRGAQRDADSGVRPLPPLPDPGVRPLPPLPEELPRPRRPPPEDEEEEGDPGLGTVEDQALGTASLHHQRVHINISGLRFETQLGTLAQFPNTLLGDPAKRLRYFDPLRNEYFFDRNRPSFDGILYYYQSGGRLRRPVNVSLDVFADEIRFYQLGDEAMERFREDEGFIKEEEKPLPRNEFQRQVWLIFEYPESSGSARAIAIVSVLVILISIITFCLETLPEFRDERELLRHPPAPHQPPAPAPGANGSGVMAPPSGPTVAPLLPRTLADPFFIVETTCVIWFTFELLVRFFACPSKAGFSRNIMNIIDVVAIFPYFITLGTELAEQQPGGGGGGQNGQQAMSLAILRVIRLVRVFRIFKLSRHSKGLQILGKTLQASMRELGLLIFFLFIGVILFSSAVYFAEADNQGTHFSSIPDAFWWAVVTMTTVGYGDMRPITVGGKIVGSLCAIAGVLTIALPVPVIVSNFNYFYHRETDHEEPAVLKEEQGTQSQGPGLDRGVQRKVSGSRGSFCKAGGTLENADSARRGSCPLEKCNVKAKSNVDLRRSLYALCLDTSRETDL
Experimental: as §1, §2, §3, §4, §5, §6

SMILES: Cc1cn2cccc(OCCCc3ccccc3)c2n1 [Compound 2, 2-METHYL-8-[3-PHENYLPROPOXY]IMIDAZO[1,2-α]PYRIDINE MONOHYDROCHLORIDE]
- D25 QT (dose required to produce a 25% increase in Q-T interval) (Sprague Dawley rats; indicates cardiac potassium channel blockade): 16 µmol/kg
- D25 PR (dose required to produce a 25% increase in P-R interval) (Sprague Dawley rats; indicates cardiac sodium channel blockade): 24 µmol/kg
- IC50 (Kv4.2): 7 µM
- IC50 (HERG): 0.06 µM
- IC50 (hH1 Na+ current): 34 µM
- IC50 (Kv1.5): 4 µM

SMILES: CCc1cn2cccc(OCCCc3ccc(Cl)cc3Cl)c2n1 [Compound 4, 8-[3-(2,4-DICHLOROPHENYL)PROPOXY]-2-ETHYLIMIDAZO[1,2-α]PYRIDINE MONOHYDROCHLORIDE]
- IC50 (Kv4.2): 0.8 µM
- IC50 (HERG): 0.02 µM
- IC50 (hH1 Na+ current): 1 µM
- IC50 (Kv1.5): 0.1 µM

SMILES: Clc1ccc(CCCOc2cccn3cc(-c4ccccc4)nc23)c(Cl)c1 [Compound 5, 8-[3-(2,4-DICHLOROPHENYL)PROPOXY]-2-PHENYLIMIDAZO[1,2-α]PYRIDINE MONOHYDROCHLORIDE]
- IC50 (Kv4.2): 71 µM
- IC50 (HERG): 0.9 µM
- IC50 (hH1 Na+ current): 239 µM
- IC50 (Kv1.5): 170 µM

SMILES: Cc1cn2cccc(OCCCC3CCCCC3)c2n1 [Compound 9, 8-[(3-CYCLOHEXYL)PROPOXY]-2-METHYLIMIDAZO[1,2-α]PYRIDINE MONOHYDROCHLORIDE]
- IC50 (Kv4.2): 3 µM
- IC50 (HERG): 0.05 µM
- IC50 (hH1 Na+ current): 14 µM
- IC50 (Kv1.5): 1 µM

SMILES: Cc1cn2cccc(OCCCCCc3ccccc3)c2n1 [Compound 10, 2-METHYL-8-[5-PHENYL-1-PENTOXY]IMIDAZO[1,2-α]PYRIDINE MONOHYDROCHLORIDE]
- IC50 (Kv4.2): 1 µM
- IC50 (HERG): 0.1 µM
- IC50 (hH1 Na+ current): 12 µM
- IC50 (Kv1.5): 0.8 µM

More lines, main results first:

- IC50 (Kv4.2): 0.9 µM
- IC50 (hH1 Na+ current): 0.3 µM
- IC50 (Kv1.5): 0.8 µM
SMILES: Cc1cn2cccc(OCCCc3c(Cl)cccc3Cl)c2n1 [Compound 6, 8-[3-(2,6-DICHLOROPHENYL)PROPOXY]-2-Methylimidazo[1,2-α]PYRIDINE MONOHYDROCHLORIDE]
- IC50 (HERG): 0.3 µM

- IC50 (Kv4.2): 10 µM
- IC50 (hH1 Na+ current): 15 µM
- IC50 (Kv1.5): 5 µM
SMILES: Cc1cn2cccc(OCc3ccccc3C(F)(F)F)c2n1 [Compound 7, 2-METHYL-8-[2-(TRIFLUOROMETHYL)BENZYLOXY]IMIDAZO[1,2-α]PYRIDINE MONOHYDROCHLORIDE]
- IC50 (HERG): 0.8 µM

- IC50 (Kv4.2): 11 µM
- IC50 (hH1 Na+ current): 1210 µM
- IC50 (Kv1.5): 0.8 µM
SMILES: Cc1cn2cccc(OCc3ccc(Cl)cc3Cl)c2n1 [Compound 8, 8-[2,4-DICHLOROBENZYLOXY]-2-METHYLIMIDAZO[1,2-α]PYRIDINE MONOHYDROCHLORIDE]
- IC50 (HERG): 0.4 µM

- IC50 (Kv4.2): 14 µM
- IC50 (hH1 Na+ current): 152 µM
- IC50 (Kv1.5): 11 µM
SMILES: Cc1cn2cccc(OCCCOCc3ccccc3)c2n1 [Compound 11, 8-[3-BENZYLOXY-1-PROPOXY]-2-METHYLIMIDAZO[1,2-α]PYRIDINE MONOHYDROCHLORIDE]
- IC50 (HERG): 0.08 µM

- IC50 (Kv4.2): 1 µM
- IC50 (hH1 Na+ current): 3 µM
- IC50 (Kv1.5): 0.6 µM
SMILES: Cc1cn2cccc(OCCC(c3ccccc3)c3ccccc3)c2n1 [Compound 12, 8-[3,3-DIPHENYL-1-PROPOXY]-2-METHYLIMIDAZO[1,2-α]PYRIDINE MONOHYDROCHLORIDE]
- IC50 (HERG): 0.004 µM

- IC50 (Kv4.2): 3 µM
- IC50 (hH1 Na+ current): 8 µM
- IC50 (Kv1.5): 0.7 µM
SMILES: Cc1cn2cccc(OCC3(c4ccccc4)CC3)c2n1 [Compound 13, 2-METHYL-8-[(1-PHENYL-CYCLOPROPYL)METHOXY]IMIDAZO[1,2-α]PYRIDINE MONOHYDROCHLORIDE]
- IC50 (HERG): 0.4 µM

- IC50 (Kv4.2): 0.6 µM
- IC50 (hH1 Na+ current): 8 µM
- IC50 (Kv1.5): 0.1 µM
SMILES: FC(F)(F)c1cn2cccc(OCCCc3ccc(Cl)cc3Cl)c2n1 [Compound 15, 8-[3-(2,4-DICHLOROPHENYL)PROPOXY]-2-(TRIFLUOROMETHYL)IMIDAZO[1,2-α]PYRIDINE MONOHYDROCHLORIDE]
- IC50 (HERG): 1 µM
